Data set [1] relates to Rattus norvegicus. Nature of the data set: The compound was tested in vivo for DOPA accumulation in hemispheres (cortex) against reserpine-pretreated rats; I= inactive at the highest dose tested (50). Type of data set: functional, organism-based.
Data set [2] deals with T1, D(3) dopamine receptor (Rattus norvegicus, UniProt P19020). Nature of the data set: The compound was tested in vitro for binding affinity against cloned mammalian Dopamine receptor D3 expressed in CHO cells by, using [3H]spiperone as radioligand. Type of data set: cell-based.
T1 sequence (P19020 whole entry): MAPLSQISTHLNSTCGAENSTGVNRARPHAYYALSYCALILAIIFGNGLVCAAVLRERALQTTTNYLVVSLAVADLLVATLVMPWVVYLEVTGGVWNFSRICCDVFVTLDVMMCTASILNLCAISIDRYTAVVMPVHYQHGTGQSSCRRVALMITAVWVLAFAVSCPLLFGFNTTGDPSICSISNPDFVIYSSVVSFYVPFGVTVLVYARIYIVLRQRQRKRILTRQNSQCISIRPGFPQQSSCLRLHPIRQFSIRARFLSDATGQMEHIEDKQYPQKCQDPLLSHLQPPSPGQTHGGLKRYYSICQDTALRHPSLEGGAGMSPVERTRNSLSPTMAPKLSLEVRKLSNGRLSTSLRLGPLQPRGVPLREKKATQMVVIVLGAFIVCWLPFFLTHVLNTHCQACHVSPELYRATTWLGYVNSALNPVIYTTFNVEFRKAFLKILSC
In data set [3] the target is 5-hydroxytryptamine receptor 1D (Homo sapiens, UniProt P28221). Put plainly: Binding affinity against 5-hydroxytryptamine 1D receptor alpha expressed in CHO-K1 cells, using [3H]-5-HT as the radioligand. Type of data set: cell-based. The following applies: read-out: Ki.
Sequence of 5-hydroxytryptamine receptor 1D (P28221 whole entry): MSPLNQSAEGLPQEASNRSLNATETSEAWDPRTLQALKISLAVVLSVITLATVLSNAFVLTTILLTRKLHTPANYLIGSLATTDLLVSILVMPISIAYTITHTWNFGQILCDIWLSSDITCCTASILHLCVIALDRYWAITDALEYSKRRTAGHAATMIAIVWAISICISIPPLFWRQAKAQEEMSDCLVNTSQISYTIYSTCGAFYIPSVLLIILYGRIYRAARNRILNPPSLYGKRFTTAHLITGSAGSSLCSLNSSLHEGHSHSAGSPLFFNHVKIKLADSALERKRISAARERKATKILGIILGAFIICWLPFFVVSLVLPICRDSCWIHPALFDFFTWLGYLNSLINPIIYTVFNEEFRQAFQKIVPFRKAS
Data set [4] concerns the target T2, D(2) dopamine receptor (Rattus norvegicus, UniProt P61169). Nature of the data set: Binding affinity against Dopamine receptor D2 expressed in CHO-K1 cells, using [3H]U-86170 as the radioligand. The class given is cell-based.
Data set [5] concerns Rattus norvegicus. Put plainly: compound was tested in vivo for 5-HTP accumulation in corpus striatum against reserpine-pretreated rats, activity expressed as ED50. Type of data set: functional.
In data set [6] the test system is Rattus norvegicus. Put plainly: compound was tested in vivo for 5-HTP accumulation in limbic system against reserpine-pretreated rats,. Type of data set: functional.
Data set [7] concerns Rattus norvegicus. Nature of the data set: compound was tested in vivo for DOPA accumulation in corpus striatum against reserpine-pretreated rats; I= inactive at the highest dose tested (50). Type of data set: functional, organism-based.
Data set [8] relates to Rattus norvegicus. Nature of the data set: compound was tested in vivo for 5-HTP accumulation in hemispheres (cortex) against reserpine-pretreated rats. Type of data set: functional.
Data set [9] concerns the target 5-hydroxytryptamine receptor 1B (Homo sapiens, UniProt P28222). Nature of the data set: Binding affinity against 5-hydroxytryptamine 1D receptor beta expressed in CHO-K1 cells, using [3H]5-HT as the radioligand. Type of data set: cell-based. The conditions noted are these: for pKi: read-out: Ki.
For data set [10], the system named is Rattus norvegicus. Put plainly: The compound was tested in vivo for DOPA accumulation in limbic system against reserpine-pretreated rats; I= inactive at the highest dose tested (50). The class given is functional, organism-based.
Data set [11] has as its target T3, 5-hydroxytryptamine receptor 1A (Rattus norvegicus, UniProt P19327).
T3 sequence (P19327 whole entry): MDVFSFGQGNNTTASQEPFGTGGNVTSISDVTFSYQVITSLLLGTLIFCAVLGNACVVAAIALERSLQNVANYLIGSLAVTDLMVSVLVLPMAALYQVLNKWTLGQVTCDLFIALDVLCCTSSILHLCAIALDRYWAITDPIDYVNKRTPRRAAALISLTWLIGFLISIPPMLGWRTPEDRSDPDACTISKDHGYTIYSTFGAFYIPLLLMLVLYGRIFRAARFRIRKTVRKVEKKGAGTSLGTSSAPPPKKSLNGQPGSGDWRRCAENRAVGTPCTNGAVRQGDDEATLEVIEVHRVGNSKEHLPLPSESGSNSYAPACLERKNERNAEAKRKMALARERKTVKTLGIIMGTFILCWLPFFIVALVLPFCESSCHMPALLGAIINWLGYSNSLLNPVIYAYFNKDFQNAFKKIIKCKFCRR
Put plainly: Binding affinity against 5-hydroxytryptamine 1A receptor from CHO-K1 cells, using [3H]8-OH-DPAT as the radioligand. Type of data set: cell-based.

Data set [12] deals with Rattus norvegicus. Nature of the data set: The Compound was tested in vivo for DOPA accumulation in limbic system against reserpine-pretreated rats; P=significant partial reduction only at the highest dose tested (50). The class given is functional, organism-based.
Data set [13] deals with Rattus norvegicus. Nature of the data set: Compound was tested in vivo for 5-HTP accumulation in hemispheres (cortex) against reserpine-pretreated rats;I= inactive at the highest dose tested (50). Type of data set: functional, organism-based.
The test system of data set [14] is Rattus norvegicus. Put plainly: Compound was tested in vivo for DOPA accumulation in corpus striatum against reserpine-pretreated rats;P= significant partial reduction only at the highest dose tested (50). The class given is functional, organism-based.
For data set [15], the system named is Rattus norvegicus. Put plainly: The Compound was tested in vivo for DOPA accumulation in hemispheres (cortex) against reserpine-pretreated rats;I= inactive at the highest dose tested (50). Type of data set: functional, organism-based.
Data set [16] has as its system Rattus norvegicus. Nature of the data set: Compound was tested in vivo for 5-HTP accumulation in corpus striatum against reserpine-pretreated rats;I= inactive at the highest dose tested (50). Type of data set: functional, organism-based.
Data set [17] relates to Rattus norvegicus. Nature of the data set: Compound was tested in vivo for 5-HTP accumulation in limbic system against reserpine-pretreated rats;P= significant partial reduction only at the highest dose tested (50). Type of data set: functional, organism-based.
Data set [18] in a line: tmax in hours at a po dose of 10.0(pmol/g/h). Type of data set: ADME, organism-based. The conditions noted are these: in vivo.
Data set [19] is described as follows: tmax in hours at a iv dose of 2.0(pmol/g/h). Type of data set: ADME, organism-based. The conditions noted are these: in vivo.
The test system of data set [20] is Rattus norvegicus. Nature of the data set: Bioavailability in male Sprague-Dawley rats, after the iv administration at a dose of 2.0(pmol/g/h). The class given is ADME, organism-based. The following applies: in vivo.
Data set [21] relates to Rattus norvegicus. Put plainly: Bioavailability in male Sprague-Dawley rats, after the po administration at a dose of 10.0(pmol/g/h). The class given is ADME, organism-based. The conditions noted are these: in vivo.
Data set [22] can be described thus: Bioavailability in rat plasma following iv/po dose. The class given is ADME, organism-based.
Data set [23] relates to Rattus norvegicus. Nature of the data set: Compound was tested in vivo for 5-HTP accumulation in limbic system against reserpine-pretreated rats;I=inactive at the highest dose tested (50). Type of data set: functional, organism-based.
Data set [24] has as its system Rattus norvegicus. Nature of the data set: Compound was tested in vivo for DOPA accumulation in corpus striatum against reserpine-pretreated rats; P=significant partial reduction only at the highest dose tested (50). The class given is functional, organism-based.
The test system of data set [25] is Rattus norvegicus. Put plainly: The Compound was tested in vivo for DOPA accumulation in hemispheres (cortex) against reserpine-pretreated rats; I=inactive at the highest dose tested (50). The class given is functional, organism-based.
Data set [26] concerns the target T1, D(3) dopamine receptor. Put plainly: Binding affinity against Dopamine receptor D3 expressed in CHO-K1 cells, using [3H]spiperone as the radioligand. Type of data set: cell-based.
Data set [27] deals with Rattus norvegicus. Nature of the data set: In vivo for 5-HTP accumulation in corpus striatum against reserpine-pretreated rats. Type of data set: functional.
For data set [28], the target named is T2, D(2) dopamine receptor. Put plainly: Binding affinity against Dopamine receptor D2 from CHO-K1 cells, using [3H]U-86,170 as the radioligand. The class given is cell-based.
In data set [29] the test system is Rattus norvegicus. Nature of the data set: The Compound was tested in vivo for DOPA accumulation in hemispheres (cortex) against reserpine-pretreated rats;I= inactive at the highest dose (40). The class given is functional, organism-based.
For data set [30], the system named is Rattus norvegicus. Put plainly: The Compound was tested in vivo for DOPA accumulation in limbic system against reserpine-pretreated rats; P=significant partial reduction only at the highest dose tested (40). Type of data set: functional, organism-based.
Data set [31] relates to Rattus norvegicus. Put plainly: In vivo for 5-HTP accumulation in limbic system against reserpine-pretreated rats. The class given is functional.
For data set [32], the system named is Rattus norvegicus. Nature of the data set: Compound was tested in vivo for DOPA accumulation in corpus striatum against reserpine-pretreated rats;P= significant partial reduction only at the highest dose tested (40). Type of data set: functional, organism-based.
The subject of data set [33] is Rattus norvegicus. Put plainly: Compound was tested in vivo for 5-HTP accumulation in hemispheres (cortex) against reserpine-pretreated rats; significant partial reduction only at the highest dose tested (40). Type of data set: functional, organism-based.
Data set [34] deals with T1, D(3) dopamine receptor. Nature of the data set: Binding affinity against Dopamine receptor D3 from CHO-K1 cells, using [3H]spiperone as the radioligand. The conditions noted are these: read-out: Ki. Type of data set: cell-based.

pKi: −log10 of the molar value. The source made the active and inactive calls. No cut-off for these calls is given here.

T2 sequence (P61169 whole entry): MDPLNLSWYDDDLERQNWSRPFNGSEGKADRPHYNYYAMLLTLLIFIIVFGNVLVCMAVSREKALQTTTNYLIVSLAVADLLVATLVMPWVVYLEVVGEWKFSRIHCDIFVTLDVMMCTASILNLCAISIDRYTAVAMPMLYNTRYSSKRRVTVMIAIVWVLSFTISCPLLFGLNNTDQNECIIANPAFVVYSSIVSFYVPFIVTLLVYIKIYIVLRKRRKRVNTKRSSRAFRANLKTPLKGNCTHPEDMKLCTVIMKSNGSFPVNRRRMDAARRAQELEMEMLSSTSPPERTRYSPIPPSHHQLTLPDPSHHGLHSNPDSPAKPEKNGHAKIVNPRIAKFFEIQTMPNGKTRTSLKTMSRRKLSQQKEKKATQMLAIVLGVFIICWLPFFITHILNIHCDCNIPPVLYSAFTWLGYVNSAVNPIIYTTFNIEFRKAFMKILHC
Sequence of 5-hydroxytryptamine receptor 1B (P28222 whole entry): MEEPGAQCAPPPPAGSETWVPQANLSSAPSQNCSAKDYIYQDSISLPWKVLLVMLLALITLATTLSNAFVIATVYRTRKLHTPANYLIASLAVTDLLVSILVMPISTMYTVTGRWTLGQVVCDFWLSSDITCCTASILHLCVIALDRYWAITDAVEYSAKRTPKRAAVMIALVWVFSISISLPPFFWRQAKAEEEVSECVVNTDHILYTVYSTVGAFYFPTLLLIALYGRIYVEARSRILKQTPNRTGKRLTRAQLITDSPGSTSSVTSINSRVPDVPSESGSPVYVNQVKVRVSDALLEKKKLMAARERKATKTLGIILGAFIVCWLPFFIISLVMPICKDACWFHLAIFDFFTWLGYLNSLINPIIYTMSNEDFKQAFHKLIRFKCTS

Take `CCCNC1CCc2cc(F)ccc2C1` (configuration not stated): the ED50 entry in the data set with Rattus norvegicus [1], with Rattus norvegicus [7] and in the data set with Rattus norvegicus [10] was “inactive” each time. Further, the negative logarithm of the Ki (pKi) on D(3) dopamine receptor [2] was 6.81; in [3] it was 6.23; at D(2) dopamine receptor [4], 6.79; in [9], 5.82; in [11], 6.87. Moreover, the 50% effective dose (ED50) worked out at 9.53 µmol/kg in the data set on Rattus norvegicus [5], 15.5 µmol/kg in the data set on Rattus norvegicus [6] and 12.8 µmol/kg with Rattus norvegicus [8].

Consider `CCCN(CCC)C1CCc2ccc3cc[nH]c3c2C1` (configuration not stated), for which the ED50 result in the data set with Rattus norvegicus [12], in the data set on Rattus norvegicus [14] and with Rattus norvegicus [17] was “Weak activity” each time. The ED50 result in the data set on Rattus norvegicus [13], in the data set on Rattus norvegicus [15] and in the data set with Rattus norvegicus [16] was “inactive” each time.

Consider `CN(C)[C@@H]1CCc2ccc3[nH]ccc3c2C1`, for which the T max in [18] came to 150 h. For the same compound, the time to peak (Tmax) in data set [19] came to 2 h. Moreover, the results for the AUC in the data set on Rattus norvegicus [20] and in the data set with Rattus norvegicus [21] were 431 pM ml-1 and 848 pM ml-1, respectively. The same compound returned a bioavailability in data set [22] of 46%.

In the case of `CCCN(CCC)C1CCc2ccc3c(c2C1)N(C=O)CC3` (configuration not stated), the ED50 entry in the data set on Rattus norvegicus [23], in the data set on Rattus norvegicus [13], in the data set on Rattus norvegicus [15] and with Rattus norvegicus [16] was “inactive” each time. For the same compound, the ED50 result in the data set with Rattus norvegicus [12] and with Rattus norvegicus [24] was “Weak activity” in each case.

For `CCCN(CCC)[C@H]1CCc2ccc3[nH]cc(C#N)c3c2C1`, the 50% effective dose (ED50) entry in the data set with Rattus norvegicus [12] and in the data set with Rattus norvegicus [24] was “Weak activity” throughout. Also, the negative-log Ki (pKi) is 7.38 in data set [3]; 6.38 at D(2) dopamine receptor [4]; 6.52 in [9]; 6.41 on D(3) dopamine receptor [26]; 9.30 in [11]. In addition, the ED50 result in the data set on Rattus norvegicus [25] is “inactive”.

For the compound `CCCN(CCC)C1CCc2cc(F)c3[nH]cc(C(=O)CC)c3c2C1` (configuration not stated), the ED50 in the data set on Rattus norvegicus [27] was 3.94 µmol/kg; with Rattus norvegicus [30] it was “Weak activity”; with Rattus norvegicus [31] it was 6.34 µmol/kg; in the data set with Rattus norvegicus [32] it was “Weak activity”. For the same compound, the negative logarithm of the Ki (pKi) is 6.42 at D(2) dopamine receptor [28], 7.44 in data set [3], 6.27 on D(3) dopamine receptor [34] and 8.15 in data set [11]. In addition, the ED50 result in the data set on Rattus norvegicus [29] was “inactive”. Besides, in the data set on Rattus norvegicus [33], the median effective dose (ED50) result was “Active”. Also, the Ki result in data set [9] (cho-k1) is listed as “Not Active”.

Source of the values: ChEMBL document CHEMBL1128401, “Structure-activity relationships in the 8-amino-6,7,8,9-tetrahydro-3H-benz[e]indole ring system. 1. Effects of substituents in the aromatic system on serotonin and dopamine receptor subtypes” (J Med Chem, 1995).
